Like-named read-outs stand apart in the source and are kept apart here.
Key:
[1] = molecular target: MCL-1/Bim interaction (recombinant human MCL-1 protein, residues 171-327; biotinylated human Bim peptide, residues 51-76) (Homo sapiens (Human), UniProt Q07820); experiment: MCL-1/Bim Binding AlphaLISA Assay; settings: 0.0625 nM 6xHis-Mcl-1 (171-327), 0.0625 nM biotinylated-Bim peptide
How it was run: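 Compounds first sat 1 h with MCL-1 (171-327, 0.0625 nM), followed by 2 h with biotin-Bim 51-76 (0.0625 nM), then sequential 1 h anti-His acceptor and streptavidin donor bead steps; buffer Hepes pH 7.5 with NaCl, Brij 35, DTT, BSA. AlphaScreen signal converted to % inhibition using DMSO (negative) and protein/peptide-free (positive) controls.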

[2] = tested on: SKBR3 cells; experiment: SKBR3 Cell Viability Assay (CellTiter Glo); type: cell-based; settings: CellTiter Glo luminescence, read-out: MCL-1 CV SKBR3 EC50
How it was run: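 Viability read as CellTiter Glo luminescence after 72 h of compound exposure at 37° C./5% CO2, using 6,000 SKBR3 cells per well in McCoy 5A with 10% FBS. Percent inhibition scaled between DMSO wells and 10 μM puromycin wells.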

MCL-1/Bim interaction (recombinant human MCL-1 protein, residues 171-327; biotinylated human Bim peptide, residues 51-76), sequence (Q07820 171-327): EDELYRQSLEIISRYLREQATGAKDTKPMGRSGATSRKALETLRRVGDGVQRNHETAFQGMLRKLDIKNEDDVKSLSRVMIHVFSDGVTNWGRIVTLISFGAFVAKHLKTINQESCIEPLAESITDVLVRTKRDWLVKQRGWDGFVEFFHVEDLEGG

Row | SMILES | IC50 [1] [nM] | EC50 ([2]; Homo sapiens, SK-BR-3, 72 h) [nM] | EC50 ([2]; 72 hours) [nM]
1 | COc1nc(OC)c(C(=O)N[S@@]2(=O)=NC(=O)c3ccc4c(c3)N(C[C@@H]3CC[C@H]3[C@@H](OC)/C=C/C[C@H](C)C2)C[C@@]2(CCCc3cc(Cl)ccc32)CO4)c(OC)n1 [Example 459] | 0.085 | 194 | 
2 | CO[C@H]1/C=C/C[C@H](C)C[S@@](=O)(NC(=O)NC2CC3(COC3)C2)=NC(=O)c2ccc3c(c2)N(C[C@@H]2CC[C@H]21)C[C@@]1(CCCc2cc(Cl)ccc21)CO3 [Example 217] | 0.065 | 83.2 | 
3 | CCc1nn(C)cc1C(=O)N[S@@]1(=O)=NC(=O)c2ccc3c(c2)N(C[C@@H]2CC[C@H]2[C@@H](OC)/C=C/C[C@H](C)C1)C[C@@]1(CCCc2cc(Cl)ccc21)CO3 [Example 187] | 0.107 | 43.1 | 
4 | CO[C@H]1/C=C/C[C@H](C)C[S@@](=O)(NC(=O)c2cn(C)nc2OCC2CC2)=NC(=O)c2ccc3c(c2)N(C[C@@H]2CC[C@H]21)C[C@@]1(CCCc2cc(Cl)ccc21)CO3 [Example 221] | 0.046 | 104 | 
5 | COCCOC1CN(C(=O)N[S@@]2(=O)=NC(=O)c3ccc4c(c3)N(C[C@@H]3CC[C@H]3[C@@H](OC)/C=C/C[C@H](C)C2)C[C@@]2(CCCc3cc(Cl)ccc32)CO4)C1 [Example 251] | 0.037 | 39.6 | 
6 | CO[C@H]1/C=C/C[C@H](C)C[S@@](=O)(NC(=O)c2cnn(C3CCC3)c2)=NC(=O)c2ccc3c(c2)N(C[C@@H]2CC[C@H]21)C[C@@]1(CCCc2cc(Cl)ccc21)CO3 [Example 176] | 0.138 | 79.3 | 
7 | COCCNC(=O)N[S@@]1(=O)=NC(=O)c2ccc3c(c2)N(C[C@@H]2CC[C@H]2[C@@H](OC)/C=C/C[C@H](C)C1)C[C@@]1(CCCc2cc(Cl)ccc21)CO3 [Example 132] | 0.038 | 72 | 
8 | CO[C@H]1/C=C/CCC[S@@](=O)(NC(=O)CCc2ncsc2C)=NC(=O)c2ccc3c(c2)N(C[C@@H]2CC[C@H]21)C[C@@]1(CCCc2cc(Cl)ccc21)CO3 [Example 101] | 1.4 | 2590 | 
9 | CO[C@H]1/C=C/C[C@H](C)C[S@@](=O)(NC(=O)N[C@H]2C[C@H](F)C2)=NC(=O)c2ccc3c(c2)N(C[C@@H]2CC[C@H]21)C[C@@]1(CCCc2cc(Cl)ccc21)CO3 [Example 357] | 0.113 | 206 | 
10 | CO[C@H]1/C=C/C[C@H](C)C[S@@](=O)(NC(=O)c2cc3n(n2)CCCO3)=NC(=O)c2ccc3c(c2)N(C[C@@H]2CC[C@H]21)C[C@@]1(CCCc2cc(Cl)ccc21)CO3 [Example 197] | 0.041 | 130 | 
11 | CO[C@H]1/C=C/C[C@H](C)C[S@@](=O)(NC(=O)NC2CCC2)=NC(=O)c2ccc3c(c2)N(C[C@@H]2CC[C@H]21)C[C@@]1(CCCc2cc(Cl)ccc21)CO3 [Example 423] | 0.056 | 169 | 
12 | COc1c(C(=O)N[S@@]2(=O)=NC(=O)c3ccc4c(c3)N(C[C@@H]3CC[C@H]3[C@@H](OC)/C=C/C[C@H](C)C2)C[C@@]2(CCCc3cc(Cl)ccc32)CO4)cn2c1C[C@@H](OC)C2 [Example 224] | 0.195 | 83.5 | 
13 | COC1CN(C(=O)N[S@@]2(=O)=NC(=O)c3ccc4c(c3)N(C[C@@H]3CC[C@H]3[C@@H](OC)/C=C/C[C@H](C)C2)C[C@@]2(CCCc3cc(Cl)ccc32)CO4)C1 [Example 362] | 0.024 | 17.3 | 
14 | CO[C@H]1/C=C/CCC[S@@](=O)(NC(=O)NCc2ccnn2C)=NC(=O)c2ccc3c(c2)N(C[C@@H]2CC[C@H]21)C[C@@]1(CCCc2cc(Cl)ccc21)CO3 [Example 75] | 0.3 | 692 | 
15 | CO[C@H]1/C=C/C[C@H](C)C[S@@](=O)(NC(=O)N[C@H]2C[C@H](COC(=O)N(C)C)C2)=NC(=O)c2ccc3c(c2)N(C[C@@H]2CC[C@H]21)C[C@@]1(CCCc2cc(Cl)ccc21)CO3 [Example 335] | 0.235 | 66.2 | 
16 | CO[C@H]1/C=C/C[C@H](C)C[S@@](=O)(NC(=O)Nc2ncccn2)=NC(=O)c2ccc3c(c2)N(C[C@@H]2CC[C@H]21)C[C@@]1(CCCc2cc(Cl)ccc21)CO3 [Example 111] | 0.093 | 721 | 
17 | CO[C@H]1/C=C/CCC[S@@](=O)(NC(=O)CCc2nnc(C)s2)=NC(=O)c2ccc3c(c2)N(C[C@@H]2CC[C@H]21)C[C@@]1(CCCc2cc(Cl)ccc21)CO3 [Example 102] | 0.3 | 891 | 
18 | CO[C@H]1/C=C/C[C@H](C)C[S@@](=O)(NC(=O)N[C@H]2C[C@@H]2OC)=NC(=O)c2ccc3c(c2)N(C[C@@H]2CC[C@H]21)C[C@@]1(CCCc2cc(Cl)ccc21)CO3 [Example 160] | 0.031 | 35 | 
19 | CO[C@H]1/C=C/CCC[S@@](=O)(NC(=O)CCc2cnccn2)=NC(=O)c2ccc3c(c2)N(C[C@@H]2CC[C@H]21)C[C@@]1(CCCc2cc(Cl)ccc21)CO3 [Example 35] | 0.2 | 266 | 
20 | CO[C@H]1/C=C/C[C@H](C)[C@@H](C)[S@@](=O)(NC(=O)CCc2ccnn2C)=NC(=O)c2ccc3c(c2)N(C[C@@H]2CC[C@H]21)C[C@@]1(CCCc2cc(Cl)ccc21)CO3 [Example 49] | 0.1 |  | 207
21 | COC[C@H]1Cn2cc(C(=O)N[S@@]3(=O)=NC(=O)c4ccc5c(c4)N(C[C@@H]4CC[C@H]4[C@@H](OC)/C=C/C[C@H](C)C3)C[C@@]3(CCCc4cc(Cl)ccc43)CO5)cc2CO1 [Example 214] | 0.185 | 55.9 | 
22 | CO[C@H]1/C=C/CCC[S@@](=O)(NC(=O)COc2ccnn2C)=NC(=O)c2ccc3c(c2)N(C[C@@H]2CC[C@H]21)C[C@@]1(CCCc2cc(Cl)ccc21)CO3 [Example 100] | 0.2 | 2260 | 
23 | CNc1nn(C)cc1C(=O)N[S@@]1(=O)=NC(=O)c2ccc3c(c2)N(C[C@@H]2CC[C@H]2[C@@H](OC)/C=C/C[C@H](C)C1)C[C@@]1(CCCc2cc(Cl)ccc21)CO3 [Example 212] | 0.04 | 37.6 | 
24 | CO[C@H]1/C=C/CCC[S@@](=O)(NC(=O)CCn2nccc2C)=NC(=O)c2ccc3c(c2)N(C[C@@H]2CC[C@H]21)C[C@@]1(CCCc2cc(Cl)ccc21)CO3 [Example 56] | 0.6 | 1180 | 
25 | CO[C@H]1/C=C/C[C@H](C)C[S@@](=O)(NC(=O)c2cc3n(c2)CCN(S(C)(=O)=O)C3)=NC(=O)c2ccc3c(c2)N(C[C@@H]2CC[C@H]21)C[C@@]1(CCCc2cc(Cl)ccc21)CO3 [Example 455] | 0.147 | 146 | 
26 | CO[C@H]1/C=C/CCC[S@@](=O)(NC(=O)CCc2ccncc2)=NC(=O)c2ccc3c(c2)N(C[C@@H]2CC[C@H]21)C[C@@]1(CCCc2cc(Cl)ccc21)CO3 [Example 41] | 0.1 | 256 | 
27 | CO[C@H]1/C=C/C[C@H](C)C[S@@](=O)(NC(=O)c2coc(C)c2)=NC(=O)c2ccc3c(c2)N(C[C@@H]2CC[C@H]21)C[C@@]1(CCCc2cc(Cl)ccc21)CO3 [Example 204] | 0.048 | 136 | 
28 | COc1nn(C)cc1C(=O)N[S@@]1(=O)=NC(=O)c2ccc3c(c2)N(C[C@@H]2CC[C@H]2[C@@H](OC)/C=C/[C@H](OC(=O)N(C)C)[C@H](C)C1C(=O)N(C)C)C[C@@]1(CCCc2cc(Cl)ccc21)CO3 (stereo partly shown) [Example 395] | 5.27 |  | 6180
29 | CO[C@H]1/C=C/C[C@H](C)C[S@@](=O)(NC(=O)N[C@H]2C[C@@H]2c2cnn(C)c2)=NC(=O)c2ccc3c(c2)N(C[C@@H]2CC[C@H]21)C[C@@]1(CCCc2cc(Cl)ccc21)CO3 (single isomer, unassigned) [Example 184] | 0.108 |  | 47.2
